Paper PMC5614969, “High-Affinity Functional Fluorescent Ligands for Human β-Adrenoceptors” (Scientific Reports, 2017)
Where “and” joins values, the source holds several entries; their conditions need not be identical. Identical values can stand only once. Entries after “also recorded” stand apart in the source; their conditions may differ.

Tests used:
β2AR [1] = biological target: T1, β2AR (Homo sapiens, UniProt P07550); test: cAMP FRET sensor (TEpacVV) agonist assay in HEK 293 cells; assay type: cell-based; details: HEK 293 expressing 3′,5′-cAMP FRET sensor, 30 min incubation, room temperature; for EC50: read-out: EC50 (mean ± SD)
T1 sequence (P07550 whole entry): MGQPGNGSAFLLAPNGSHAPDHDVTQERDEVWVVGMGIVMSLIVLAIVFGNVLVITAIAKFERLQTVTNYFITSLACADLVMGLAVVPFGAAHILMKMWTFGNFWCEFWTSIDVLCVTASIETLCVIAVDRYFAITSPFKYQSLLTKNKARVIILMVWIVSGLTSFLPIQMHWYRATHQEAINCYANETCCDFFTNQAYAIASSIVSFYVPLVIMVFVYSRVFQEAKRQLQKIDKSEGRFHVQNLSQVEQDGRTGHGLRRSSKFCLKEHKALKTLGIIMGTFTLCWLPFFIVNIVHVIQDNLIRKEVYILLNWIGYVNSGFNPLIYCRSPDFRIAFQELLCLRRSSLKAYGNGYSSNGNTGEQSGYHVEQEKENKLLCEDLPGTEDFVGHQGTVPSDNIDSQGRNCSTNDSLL
Procedure: Upon cAMP binding, the sensor undergoes a conformational change resulting in a decrease of the FRET efficiency between two fluorescent proteins: mTurquoise - a version of cyan fluorescent protein (CFP) as the donor, and yellow fluorescent protein (YFP) as the acceptor (Fig. 3a).
The intracellular cyclic adenosine monophosphate (cAMP) levels were determined with HEK 293 cells expressing a 3′,5′-cAMP FRET sensor. The cells were a generous gift from Ruud Hovius from École poly-technique fédérale de Lausanne (EPFL). The cAMP production induces a conformational switch in ^TEpac^VV and causes a decrease in FRET efficiency, i.e. a decreased energy transfer between the two fluorescent proteins (donor mTurquoise and acceptor YFP)[32].
(§1) The culture was maintained by subculturing the cells every 4 to 5 days using the standard trypsinization procedure. Before measurements, cells were trypsinated and transferred in a 96-well glass bottom plate (MatTek Corporation; Cat. No. P96GC-1.5–5-F) to contain 10,000–30,000 cells per well in 200 µL of DMEM media. After 24 h incubation in 5% CO2 at 37 °C, the cells were washed with HBSS pH 7.2 (200 µL), and the wells were filled with 200 µL HBSS. The DMSO stock solutions of the fluorescent probes were diluted 5,000 times in HBSS and used in experiments. […] The fluorescent ligand solutions of different concentrations in HBSS were premixed with the isoprenaline solution. 50 µL of a final solution was added to each well and the measurement was started upon addition and continued for 1 h in 10 min intervals between the readouts (inclusive).
(§2) The ligands were added using an automated pipette to initiate the sensor response. FRET readout from the cAMP sensor was performed on a multiwell plate reader Spark 20 M (Tecan) at room temperature (25 °C). Fluorescence readout amplitudes were calculated from time series for different ligand concentrations, following background subtraction (media only). […] Data were derived from 3 independent experiments and each independent experiment was performed in triplicate.
(§3) Sensor response R(CFP/FRET) was calculated using (1):1 R(CFP/FRET)=(FimTurquoise−FbkgmTurquoise)/(FiFRET−FbkgFRET) where F i ^mTurquoise – mTurquoise fluorescence intensity in the wells with cells; F bkg ^mTurquoise - mTurquoise fluorescence intensity in the control wells without cells; F i ^FRET – FRET signal intensity in the wells with cells; F bkg ^FRET – FRET signal intensity in the control wells without cells. For every result, R(CFP/FRET) ratio was normalized to the R(CFP/FRET) response of DMSO sample.

β2AR-YFP fusion protein [2] = biological target: T2, β2AR-YFP fusion protein (Homo sapiens, UniProt P07550); test: Confocal imaging of living U2OS cells expressing β2AR-YFP (staining, internalization, competitive displacement, no-wash); assay type: cell-based; details: for Receptor internalization / Staining performance: U2OS cells expressing β2AR-YFP; for Staining performance: 610CP ligands at 1.9 µM (19) and 2.5 µM (16)
T2 construct: host or cells: U2OS
T2 sequence (P07550 whole entry, the tested form may be a part): as the sequence (P07550 whole entry) above
Procedure: U2OS cells (ATCC) were cultured in high-glucose DMEM (Dulbecco’s Modified Eagle medium, Thermo Fisher Scientific) supplemented with GlutaMAX-1 (Thermo Fisher Scientific) and 10% fetal bovine serum (FBS) (Thermo Fisher Scientific) in a humidified 5% CO2 incubator at 37 °C. CAPAN-1 cells (ATCC) were cultured in McCoy’s 5a Medium Modified supplemented with 10% fetal bovine serum (FBS) (Thermo Fisher Scientific) in a humidified 5% CO2 atmosphere at 37 °C. Cells were split every 3–5 days or at confluence. Cells were seeded in glass bottom 12-well plates (MatTek Corporation). […] We used 200,000 cells per well, 3 µg plasmid DNA and 3 µl of Lipofectamine 2000.
We performed imaging 48–72 h after transfection. Staining of the transfected cell was performed in Hanks’ balanced salt solution (HBSS, Lonza) without Phenol Red for 30–40 min at room temperature (to minimize internalization). Samples were washed two times with HBSS, and cells were imaged in DMEM (Thermo Fisher Scientific) supplemented with GlutaMAX-1 (Thermo Fisher Scientific) and 10% fetal bovine serum (FBS). For all staining experiments with cells, stock solutions of dyes in DMSO were used, and final DMSO content was < 0.5%. Imaging was performed on Leica SP8 (Leica Microsystems) or Abberior STED (Abberior Instruments GmbH) microscopes.
Competitive displacement experiment was performed in living U2OS cells expressing β2AR-YFP fusion protein.
Confocal imaging was performed on a Leica SP8 (Leica Microsystems, Mannheim, Germany) inverted confocal microscope equipped with an HC PL APO CS2 63x/1.40 Oil objective. Images were acquired using a 700 Hz bidirectional scanner, pixel size of 70 nm × 70 nm, pinhole of 95.6 µm diameter(1 AU) and frame averaging of 2.

β2AR [3] = biological target: T1, β2AR; test: Staining and competitive binding in CAPAN-1 cells at endogenous β2AR expression; assay type: cell-based; details: 100 nM probe (5 nM ab118171) with 10 µM BI-167107 or carazolol
Procedure: To study the selectivity of β2AR staining at the endogenous expression levels, which are much lower compared to those in transiently β2AR expressing U2OS cells, we tested the performance of BI-167107 probes in pancreatic CAPAN-1 cells (Fig. 7c–f). […] Low density of β2AR in the plasma membrane of CAPAN-1 cells allowed us to measure of the lateral resolution in the STED images. When the cells were incubated with 100 nM BI-PEG-KK114 (18) ligand, we observed two-fold improvement in the resolution resulting in apparent structures of ~100 nm (Fig. 7d; Supplementary Table 4).
For staining of CAPAN-1 cells, fluorescent probes or mixtures of a probe and a competitor were incubated in McCoy’s 5a Medium Modified supplemented with 10% fetal bovine serum (FBS) for 30–40 min at room temperature. Afterwards, the samples were washed two times with HBSS, and cells were imaged in DMEM (Thermo Fisher Scientific) supplemented with GlutaMAX-1 (Thermo Fisher Scientific) and 10% fetal bovine serum (FBS). Imaging performed on Leica SP8 (Leica Microsystems) or Abberior STED (Abberior Instruments GmbH) microscopes.

[4] = Fluorescence increase upon addition of SDS to probe solutions; assay type: physicochemical; details: addition of 0.1% SDS to ligand in PBS pH 7.4 with 1 mg/ml BSA; mean ± SD, n=3
Procedure: Fluorescence spectra of 1 µM solution of fluorescent dyes and ligands in PBS pH 7.4, PBS pH 7.4 + 1 mg/ml BSA (Sigma) and with or without 0.1% SDS (Acros Organics) were recorded on a multiwell plate reader Spark 20 M (Tecan) in half-area black 96-well plates (Greiner Bio-One, cat. 675076) at room temperature (25 °C) after 2 h incubation. Fluorescence emission was recorded from 600 nm to 800 nm with excitation at 580 nm. The emission bandwidth for all measurements was set to 5 nm. The spectra were averaged from 3 individual experiments. Ratios F(BSA+SDS)/F(BSA) of fluorescence signals at 635 nm for 610CP, 645 nm for BODIPY 630/650-X and 655 nm for KK114 conjugates were calculated. The obtained results are summarized (Table 1 and Supplementary Fig. 7).

[5] = pH dependence of ligand fluorescence; assay type: physicochemical
Procedure: pH dependence of βAR ligands fluorescence were recorded on a multiwell plate reader Spark 20 M (Tecan) in 96-well glass bottom plates (MatTek Corporation; Cat. No. PBK96G-1.5-5-F) in PBS solutions (pH 4.7–8.0) at room temperature (25 °C). The 100x stock solutions of ligands were prepared in DMSO.

β2AR [6] = biological target: T1, β2AR; test: cAMP FRET sensor assay, competitive displacement of isoprenaline by antagonists in HEK293 cells; assay type: cell-based
Procedure: as §1, with “experiments. In the antagonist inhibition experiment, we used β1 and β2 adrenoceptor agonist isoprenaline (abcr GmbH) as a positive control causing cAMP elevation.” for “experiments.”
as §2, §3
K i ^app were calculated using the Cheng-Prusoff equation (2):2 Kiapp=IC50/[A]/EC50+1 where [A] – concentration of the isoprenaline; IC50 – fitted half maximal inhibitory concentration of labeled antagonist; EC50 – fitted half maximal response concentration of isoprenaline.

β2AR-YFP fusion protein [7] = biological target: T2, β2AR-YFP fusion protein; test: Confocal imaging of living U2OS cells expressing β2AR-YFP (staining, internalization, competitive displacement, no-wash); assay type: cell-based; details: 90 min, 100 nM carazolol-KK114 (24), 5 nM ab118171, no washing
β1- and β2-adrenoceptors = test system: β1- and β2-adrenoceptors; parameters: method as in PMID 19875286; details: racemic BI-167107; cited from earlier work
[8] = U2OS β2AR-YFP, 40 min, room temperature, washed

SMILES | EC50 (β2AR [1]) | Receptor internalization (β2AR-YFP fusion protein [2]) | Staining performance (β2AR-YFP fusion protein [2]) | Competitive displacement (β2AR-YFP fusion protein [2]; U2OS β2AR-YFP, 100 nM probe (5 nM ab118171) with 10 µM unlabeled BI-167107 or carazolol, 30 min) | confocal staining at 100 nM (β2AR-YFP fusion protein [2]; [8]) | confocal staining at 250 nM (β2AR-YFP fusion protein [2]; [8]) | competitive binding with excess unlabeled ligand (β2AR [3]) | Fluorescence increase (F BSA+SDS / F BSA) [4] | fluorescence decrease ([5]; at pH 4.7 and 8.0 versus pH 6.0–7.0) | IC50 (β2AR [6]; displacement of 17 nM isoprenaline, readout immediately after addition of ligands (0 min), read-out: IC50 (mean ± SD)) [nM] | Ki (β2AR [6]; read-out: Ki app (mean ± SD)) [nM] | confocal staining at 5 nM (β2AR-YFP fusion protein [2]; U2OS β2AR-YFP, 5 nM, 40 min, room temperature, washed) | fluorescence reduction ([5]; pH 7.0 compared to pH 4.7) | no-wash imaging staining (β2AR-YFP fusion protein [7]) | EC50 (mean ± SD, nM) (β2AR [1]) | agonist classification at β-adrenoceptors (β1- and β2-adrenoceptors)
Cc1c(CCC(=O)NCCOCCOCCNC(=O)CCCCCNC(=O)COc2ccc(/C=C/C3=[N+]4C(=Cc5ccc(-c6cccs6)n5[B-]4(F)F)C=C3)cc2)cccc1CC(C)(C)NCC(O)c1ccc(O)c2c1OCC(=O)N2 (stereo not drawn) [BI-PEG-BDY630 (17)] | 0.2 nM and 0.18 nM | Yes | Strong | Low background fluorescence | labelled the cells efficiently | unspecific fluorescence | strong off-target staining | 10.5±1.7 | about 40% |  |  |  |  |  |  | 
CC(C)(CCNC(=O)CCOCCOCCNC(=O)COc1ccc(/C=C/C2=[N+]3C(=Cc4ccc(-c5cccs5)n4[B-]3(F)F)C=C2)cc1)NC[C@H](O)COc1cccc2[nH]c3ccccc3c12 [ab118171, reference compound] |  | Weak | Strong |  | non-specific dotted background | non-specific dotted background | not possible to achieve full displacement | 8.2±3.9 |  | 74.7 ± 36.3 | 4.8 ± 3.6 | specific membrane localized fluorescence | almost two-fold | strong off-target staining |  | 
Cc1c(CCC(=O)NCCCCNC(=O)c2ccc(C(=O)[O-])c(C3=C4C=CC(=[N+](C)C)C=C4C(C)(C)c4cc(N(C)C)ccc43)c2)cccc1CC(C)(C)NCC(O)c1ccc(O)c2c1OCC(=O)N2 (stereo not drawn) [BI-4C-610CP (16)] | 7.3 ± 1.4 nM | Yes | satisfactory images; also recorded: Medium |  |  |  |  | 1.5±0.4 |  |  |  |  |  |  | low nanomolar | 
Cc1c(CCC(=O)NCCOCCOCCNC(=O)c2ccc(C(=O)[O-])c(C3=C4C=CC(=[N+](C)C)C=C4C(C)(C)c4cc(N(C)C)ccc43)c2)cccc1CC(C)(C)NCC(O)c1ccc(O)c2c1OCC(=O)N2 (stereo not drawn) [BI-PEG-610CP (19)] | 0.6 nM and 0.62 nM |  | None |  |  |  |  | 1.2±0.3 |  |  |  |  |  |  | low nanomolar | 
Cc1ccccc1CC(C)(C)NCC(O)c1ccc(O)c2c1OCC(=O)N2 (stereo not drawn) [BI-167107] |  |  |  |  |  |  |  |  |  |  |  |  |  |  |  | full agonist
